Experimental data published in patent US8618107B2 (Gilead Connecticut, Inc., priority 2010, dated 2013).

What follows are molecules tested on CD86 surface expression on CD19+/7AAD- mouse splenocytes stimulated with IgM (assay: CD86 Inhibition Assay). Details: Splenocyte; total mouse splenocytes (Balb/c), IgM stimulation 24 hr.
Type: cell-based
Description: Following the 24 hr incubation, cells are transferred to conical bottom clear 96-well plates and pelleted by centrifugation at 1200×g×5 min. […] Cells are sorted on a BD FACSCalibur and gated on the CD19^+/7AAD^− population. The levels of CD86 surface expression on the gated population is measured versus test compound concentration.

How did the EC50 turn out when CN1CCN(c2ccc(Nc3cc(-c4cc(F)cc(N5CCc6c(sc7c6CCCC7)C5=O)c4CO)cn(C)c3=O)nc2)CC1 [Example 212, 5-[5-Fluoro-2-(hydroxymethyl)-3-(1-methyl-5-{[5-(4-methylpiperazin-1-yl)pyridine-2-yl]amino}-6-oxo-1,6-dihydropyridin-3-yl)phenyl]-8-thia-5-azatricyclo[7.4.0.0^2,7]trideca-1(9),2(7)-dien-6-one] was run?
Its EC50 is 9 nM.

Which EC50 does the source give for Cn1cc(-c2cc(F)cc(N3CCc4c(sc5c4CC(C)(C)C5)C3=O)c2CO)cc(Nc2ccc(C3CCN(C4COC4)CC3)cn2)c1=O [Example 299, 10-[5-Fluoro-2-(hydroxymethyl)-3-[1-methyl-5-({5-[1-(oxetan-3-yl)piperidin-4-yl]pyridine-2-yl}amino)-6-oxo-1,6-dihydropyridin-3-yl]phenyl]-4,4-dimethyl-7-thia-10-azatricyclo[6.4.0.0^2,6]dodeca-1(8),2(6)-dien-9-one] here?
The EC50 was 9 nM.

For Cn1cc(-c2cc(F)cc(N3CCc4c(sc5c4CCCC5)C3=O)c2CO)cc(Nc2ccc(N3CCN(C4COC4)CC3)cn2)c1=O [Example 211, 5-[5-Fluoro-2-(hydroxymethyl)-3-[1-methyl-5-({5-[4-(oxetan-3-yl)piperazin-1-yl]pyridin-2-yl}amino)-6-oxo-1,6-dihydropyridin-3-yl]phenyl]-8-thia-5-azatricyclo[7.4.0.0^2,7]trideca-1(9),2(7)-dien-6-one], which EC50 is on record?
The EC50 was 9 nM.

For CN1CCC(c2ccc(Nc3cc(-c4cc(F)cc(N5CCc6c(sc7c6CCCC7)C5=O)c4CO)cn(C)c3=O)nc2)C1 (centres unmarked) [Example 308, 5-[5-Fluoro-2-(Hydroxymethyl)-3-(1-methyl-5-{[5-(1-methylpyrrolidin-3-yl)pyridine-2-yl]amino}-6-oxo-1,6-dihydropyridin-3-yl)phenyl]-8-thia-5-azatricyclo-[7.4.0.0^2,7]trideca-1(9),2(7)-dien-6-one], which EC50 is on record?
Its EC50 is 63 nM.

With COc1nccc(Nc2cc(-c3cc(F)cc(N4CCn5c(cc6c5CC(C)(C)C6)C4=O)c3CO)cn(C)c2=O)n1 [Example 300] as the molecule, how does the EC50 read?
Its EC50 is 9 nM.

For CN(Cc1cc(Nc2cc(-c3cc(F)cc(N4CCn5c(cc6c5CC(C)(C)C6)C4=O)c3CO)cn(C)c2=O)nn1C)C1COC1 [Example 321, 10-[5-Fluoro-2-(Hydroxymethyl)-3-{1-methyl-5-[(1-methyl-5-{[methyl(oxetan-3-yl)amino]methyl}-1H-pyrazol-3-yl)amino]-6-oxo-1,6-dihydropyridin-3-yl}phenyl]-4,4-dimethyl-1,10-diazatricyclo[6.4.0.0^2,6]dodeca-2(6),7-dien-9-one], which EC50 is on record?
The EC50 was 44 nM.

Which EC50 does the source give for Cn1cc(-c2cccc(N3CCn4c(cc5c4CC(C)(C)C5)C3=O)c2CO)cc(Nc2ccc(N3CCN(C4COC4)CC3)cn2)c1=O [Example 311, 10-[2-(Hydroxymethyl)-3-[1-methyl-5-({5-[4-(oxetan-3-yl)piperazin-1-yl]pyridine-2-yl}amino)-6-oxo-1,6-dihydropyridin-3-yl]phenyl]-4,4-dimethyl-1,10-diazatricyclo[6.4.0.0^2,6]dodeca-2(6),7-dien-9-one] here?
Its EC50 is 30 nM.

For Cn1cc(-c2cc(F)cc(N3CCc4c(sc5c4CCCC5)C3=O)c2CO)cc(Nc2ccncn2)c1=O [Example 115, 5-[5-Fluoro-2-(hydroxymethyl)-3-[1-methyl-6-oxo-5-(pyrimidin-4-ylamino)-1,6-dihydropyridin-3-yl]phenyl]-8-thia-5-azatricyclo[7.4.0.02,7]trideca-1(9),2(7)-dien-6-one], which EC50 is on record?
Its EC50 is 78 nM.

Cn1cc(-c2cccc(N3CCn4c(cc5c4CCCC5)C3=O)c2CO)cc(Nc2cc3n(n2)CCN(C2COC2)C3)c1=O [Example 319, 2-(2-(Hydroxymethyl)-3-(1-methyl-5-(5-(oxetan-3-yl)-4,5,6,7-tetrahydropyrazolo[1,5-a]pyrazin-2-ylamino)-6-oxo-1,6-dihydropyridin-3-yl)phenyl)-3,4,6,7,8,9-hexahydropyrazino[1,2-a]indol-1(2H)-one] was tested. Which EC50 did it give?
The EC50 was 16 nM.

For CC(C)N(C)Cc1ccc(Nc2cc(-c3cc(F)cc(N4CCc5c(sc6c5CCCC6)C4=O)c3CO)cn(C)c2=O)nc1 [Example 277, 5-[5-Fluoro-2-(hydroxymethyl)-3-{1-methyl-5-[(5-{[methyl(propan-2-yl)amino]methyl}pyridine-2-yl)amino]-6-oxo-1,6-dihydropyridin-3-yl}phenyl]-8-thia-5-azatricyclo[7.4.0.0^2,7]trideca-1(9),2(7)-dien-6-one], which EC50 is on record?
Its EC50 is 28 nM.

With CN1CCC[C@H]1c1ccc(Nc2cc(-c3cc(F)cc(N4CCn5c(cc6c5CC(C)(C)C6)C4=O)c3CO)cn(C)c2=O)nc1 [Example 290, 10-[5-Fluoro-2-(hydroxymethyl)-3-[1-methyl-5-({5-[(2S)-1-methylpyrrolidin-2-yl]pyridine-2-yl}amino)-6-oxo-1,6-dihydropyridin-3-yl]phenyl]-4,4-dimethyl-1,10-diazatricyclo[6.4.0.0^2,6]dodeca-2(6),7-dien-9-one] as the molecule, how does the EC50 read?
The EC50 was 10 nM.

Each molecule was assayed against Btk (Homo sapiens (Human), UniProt Q06187) (assay: standard biochemical Btk Kinase Assay (Example 901)). Details: Table 1.
Chain of Btk (Q06187 whole entry): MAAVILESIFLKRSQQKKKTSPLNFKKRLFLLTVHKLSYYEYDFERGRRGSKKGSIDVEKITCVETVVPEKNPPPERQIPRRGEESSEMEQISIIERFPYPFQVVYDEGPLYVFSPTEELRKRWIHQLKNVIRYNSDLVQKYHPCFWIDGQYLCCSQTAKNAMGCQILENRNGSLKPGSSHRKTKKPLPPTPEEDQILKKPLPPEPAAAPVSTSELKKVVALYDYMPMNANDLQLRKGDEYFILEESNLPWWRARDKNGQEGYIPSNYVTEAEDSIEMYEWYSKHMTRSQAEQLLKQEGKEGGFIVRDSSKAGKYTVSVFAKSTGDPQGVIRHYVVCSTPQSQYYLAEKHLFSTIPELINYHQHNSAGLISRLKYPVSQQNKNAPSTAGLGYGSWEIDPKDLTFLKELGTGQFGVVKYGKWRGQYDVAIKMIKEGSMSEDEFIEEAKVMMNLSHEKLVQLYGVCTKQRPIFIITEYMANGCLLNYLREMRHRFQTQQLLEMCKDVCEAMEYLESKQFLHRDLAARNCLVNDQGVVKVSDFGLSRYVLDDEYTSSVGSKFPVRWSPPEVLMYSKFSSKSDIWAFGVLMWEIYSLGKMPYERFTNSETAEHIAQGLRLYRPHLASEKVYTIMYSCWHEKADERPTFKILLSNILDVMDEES
Excerpt: Determination of IC50 values can be accomplished using conventional techniques known in the art. In general, an IC50 can be determined by measuring the activity of a given enzyme in the presence of a range of concentrations of the inhibitor under study. The experimentally obtained values of enzyme activity then are plotted against the inhibitor concentrations used. […] Analogously, other inhibitory concentrations can be defined through appropriate determinations of activity.

With Cn1nc(Nc2cc(-c3cccc(N4CCc5c(sc6c5CCCC6)C4=O)c3CO)nn(C)c2=O)cc1C(C)(C)O [Example 119, 5-[2-(hydroxymethyl)-3-(5-{[5-(2-hydroxypropan-2-yl)-1-methyl-1H-pyrazol-3-yl]amino}-1-methyl-6-oxo-1,6-dihydropyridazin-3-yl)phenyl]-8-thia-5-azatricyclo[7.4.0.02,7]trideca-1(9),2(7)-dien-6-one] as the molecule, how does the IC50 read?
The IC50 was 7 nM.

Which IC50 does the source give for Cn1cc(-c2cccc(N3CCc4c(sc5c4CCCC5)C3=O)c2CO)nc(Nc2cnn(CCO)c2)c1=O [Example 116, 5-[3-(6-{[1-(2-Hydroxyethyl)-1H-pyrazol-4-yl]amino}-4-methyl-5-oxo-4,5-dihydropyrazin-2-yl)-2-(hydroxymethyl)phenyl)-8-thia-5-azatricyclo[7.4.0.02,7]trideca-1(9),2(7)-dien-6-one] here?
Its IC50 is 6 nM.

With Cn1cc(-c2cccc(N3CCn4c(cc5c4CCCC5)C3=O)c2CO)cc(Nc2ccc(N3CCOCC3)cn2)c1=O [Example 107, 2-(2-(hydroxymethyl)-3-(1-methyl-5-(5-morpholinopyridin-2-ylamino)-6-oxo-1,6-dihydropyridin-3-yl)phenyl)-3,4,6,7,8,9-hexahydropyrazino[1,2-a]indol-1(2H)-one] as the molecule, how does the IC50 read?
Its IC50 is 10.1 nM.

Same assay, conditions: Table 2

For Cn1cc(-c2cc(F)cc(N3CCn4c(cc5c4CC(C)(C)C5)C3=O)c2CO)cc(Nc2ccc3c(n2)CCN(C2COC2)C3)c1=O [Example 292, 10-[5-Fluoro-2-(hydroxymethyl)-3-(1-methyl-5-{[6-(oxetan-3-yl)-5,6,7,8-tetrahydro-1,6-naphthyridin-2-yl]amino}-6-oxo-1,6-dihydropyridin-3-yl)phenyl]-4,4-dimethyl-1,10-diazatricyclo[6.4.0.0^2,6]dodeca-2(6),7-dien-9-one], which IC50 is on record?
The IC50 was 11.6 nM.

Which IC50 does the source give for Cn1cc(-c2cccc(N3CCc4c(sc5c4CCCC5)C3=O)c2CO)nc(Nc2ccc(C3CCN(C4COC4)CC3)cc2)c1=O [Example 305, 5-[2-(Hydroxymethyl)-3-[4-methyl-6-({4-[1-(oxetan-3-yl)piperidin-4-yl]phenyl}amino)-5-oxo-4,5-dihydropyrazin-2-yl]phenyl]-8-thia-5-azatricyclo[7.4.0.0^2,7]trideca-1(9),2(7)-dien-6-one] here?
The IC50 was 17.1 nM.

How did the IC50 turn out when CN(C)CCOc1ccc(Nc2cc(-c3cc(F)cc(N4CCn5c(cc6c5CCCC6)C4=O)c3CO)cn(C)c2=O)nc1 [Example 297, 2-(3-(5-(5-(2-(Dimethylamino)ethoxy)pyridin-2-ylamino)-1-methyl-6-oxo-1,6-dihydropyridin-3-yl)-5-fluoro-2-(hydroxymethyl)phenyl)-3,4,6,7,8,9-hexahydropyrazino[1,2-a]indol-1(2H)-one] was run?
The IC50 was 4.2 nM.

How did the IC50 turn out when Cn1cc(-c2cc(F)cc(N3CCn4c(cc5c4CC(C)(C)C5)C3=O)c2CO)cc(Nc2ccc(N3CCN(C4COC4)CC3)cn2)c1=O [Example 304, 10-[5-Fluoro-2-(hydroxymethyl)-3-[1-methyl-5-({5-[4-(oxetan-3-yl)piperazin-1-yl]pyridine-2-yl}amino)-6-oxo-1,6-dihydropyridin-3-yl]phenyl]-4,4-dimethyl-1,10-diazatricyclo[6.4.0.0^2,6]dodeca-2(6),7-dien-9-one] was run?
The IC50 was 7.8 nM.

How did the IC50 turn out when CN1CC(Oc2ccc(Nc3cc(-c4cc(F)cc(N5CCn6c(cc7c6CCCC7)C5=O)c4CO)cn(C)c3=O)nc2)C1 [Example 293, 2-(5-Fluoro-2-(hydroxymethyl)-3-(1-methyl-5-(5-(1-methylazetidin-3-yloxy)pyridin-2-ylamino)-6-oxo-1,6-dihydropyridin-3-yl)phenyl)-3,4,6,7,8,9-hexahydropyrazino[1,2-a]indol-1(2H)-one] was run?
Its IC50 is 9.8 nM.

With CN1CCc2cc(Nc3nc(-c4cc(F)cc(N5CCn6c(cc7c6CCCC7)C5=O)c4CO)cn(C)c3=O)ccc2C1 [Example 283, 2-(5-Fluoro-2-(hydroxymethyl)-3-(4-methyl-6-(2-methyl-1,2,3,4-tetrahydroisoquinolin-6-ylamino)-5-oxo-4,5-dihydropyrazin-2-yl)phenyl)-3,4,6,7,8,9-hexahydropyrazino[1,2-a]indol-1(2H)-one] as the molecule, how does the IC50 read?
Its IC50 is 8.1 nM.

For CCn1nc(Nc2cc(-c3cc(F)cc(N4CCn5c(cc6c5CC(C)(C)C6)C4=O)c3CO)cn(C)c2=O)cc1C [Example 302, 10-(3-{5-[(1-Ethyl-5-methyl-1H-pyrazol-3-yl)amino]-1-methyl-6-oxo-1,6-dihydropyridin-3-yl}-5-fluoro-2-(hydroxymethyl)phenyl)-4,4-dimethyl-1,10-diazatricyclo[6.4.0.0^2,6]dodeca-2(6),7-dien-9-one], which IC50 is on record?
Its IC50 is 9.9 nM.

With Cn1cc(-c2cc(F)cc(N3CCn4c(cc5c4CCCC5)C3=O)c2CO)cc(Nc2cc3n(n2)CCOC3)c1=O [Example 149, 2-(3-(5-(6,7-Dihydro-4H-pyrazolo[5,1-c][1,4]oxazin-2-ylamino)-1-methyl-6-oxo-1,6-dihydropyridin-3-yl)-5-fluoro-2-(hydroxymethyl)phenyl)-3,4,6,7,8,9-hexahydropyrazino[1,2-a]indol-1(2H)-one] as the molecule, how does the IC50 read?
The IC50 was 5 nM.

CCN1CCN(c2ccc(Nc3cc(-c4cccc(N5CCc6c(cc7n6CCCC7)C5=O)c4CO)cn(C)c3=O)nc2)CC1 [Example 310, 3-{[5-(4-Ethylpiperazin-1-yl)pyridine-2-yl]amino}-5-[2-(hydroxymethyl)-3-{1-oxo-1H,2H,3H,4H,6H,7H,8H,9H-pyrido[3,4-b]indolizin-2-yl}phenyl]-1-methyl-1,2-dihydropyridin-2-one] was tested. Which IC50 did it give?
Its IC50 is 16.6 nM.
